The text below walks through data of US9951065B2 (Gilead Sciences, Inc., priority 2015, dated 2018).

In this test the target is T1, IDO1 (Homo sapiens, UniProt P14902).
T1 construct: HeLa cells were treated with a test compound in the presence of IFNγ, which induces IDO1 expression; host or cells: H1-HeLa cells, IDO1 induced with IFNγ
T1 sequence (P14902 whole entry): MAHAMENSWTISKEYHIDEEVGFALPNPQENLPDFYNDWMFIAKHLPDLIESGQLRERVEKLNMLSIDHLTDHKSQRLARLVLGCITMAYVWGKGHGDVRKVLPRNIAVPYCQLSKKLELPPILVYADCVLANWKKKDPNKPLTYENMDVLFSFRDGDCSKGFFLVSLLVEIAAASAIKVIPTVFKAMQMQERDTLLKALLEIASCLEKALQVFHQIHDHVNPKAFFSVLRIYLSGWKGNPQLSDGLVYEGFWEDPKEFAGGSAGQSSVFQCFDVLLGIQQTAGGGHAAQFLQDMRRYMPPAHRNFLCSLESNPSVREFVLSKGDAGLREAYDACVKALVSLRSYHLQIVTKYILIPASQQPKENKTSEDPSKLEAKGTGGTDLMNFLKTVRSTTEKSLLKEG
Put plainly: Cell-based (HeLa) assay for measurement of IDO1 inhibition (kynurenine levels in supernatant after IFNγ induction). The note with it: HeLa cells, IFNγ-induced IDO1, kynurenine in supernatant after 48 hour incubation; geometric mean of a minimum of four determinations. As for the experimental part:
Example 509. Cell-Based (HeLa) Assay for Measurement of IDOL Inhibition
To measure IDO1 inhibition in tissue culture, HeLa cells were treated with a test compound in the presence of IFNγ, which induces IDO1 expression. Following incubation, cell supernatants were assayed for kynurenine levels, an indicator of IDO1 activity.
H1-HeLa cells (ATCC #CRL-1958) were seeded in 384-well plates (Greiner #82051-282) at a volume of 50 μL/well in DMEM (Corning #15-018-CM) supplemented with 10% FBS (Corning #35-011-CV) and 1% P/S/G (Corning #30-009-CL) at a density of 1,250 cells/well and incubated overnight at 37° C., 5% CO2/100% humidity. The following day, the test compounds were added in DMSO (0.5% final) at various concentrations, and IDO1 was inducibly expressed by the addition of 50 uL/well of […] of INFγ (Peprotech #300-02) in cell plating media. As a […] control, 50 uL of the cell plating media without IFNγ was added to several wells. Following a 48 hour incubation, the plates were spun down at 1,200 RPM for 5 min at 10° C. 65 μL/well of the supernatant was then transferred to new 384-well plates (Thermo #262160) that contained 10 uL/well of 30% TCA (Sigma #TO699), and the plates were sealed and incubated at 60° C. for 30 min. The plates were then centrifuged for 15 min at 2,000 RPM at 10° C. 40 μL/well of the supernatant was transferred to new 384-well plates (Thermo #262160) and was reacted with 40 μL/well of 2% (w/v) p-dimethlyaminobenzaldehyde (Sigma #156417) in glacial acetic acid (Sigma #A6283). The reaction was incubated at room temperature for 10 min and absorbance at 480 nm was read using a PerkinElmer Envision plate reader.
Data in Table 1 were normalized based on positive (−IFNγ) and negative (+IFNγ) controls and EC50 values were calculated from the fit of the dose response curves to a four-parameter equation. All EC50 values represent geometric mean values of a minimum of four determinations. These assays generally produced results within 2-fold of the reported mean.
Turning to `Cc1ccc(/C(=N/O)Nc2ccc(F)c(Cl)c2)c2[nH]cnc12` [Example 1, N-(3-Chloro-4-fluorophenyl)-N′-hydroxy-4-methyl-1H-benzo[d]imidazole-7-carboximidamide], the EC50 (usually the midpoint of the concentration-response curve) turned out to be 1220 nM.

On to `O/N=C(\Nc1ccc(F)c(Cl)c1)c1ccc(OC(F)(F)F)c2nc[nH]c12` [Example 2, N-(3-Chloro-4-fluorophenyl)-N′-hydroxy-4-(trifluoromethoxy)-1H-benzo[d]imidazole-7-carboximidamide], for which the EC50 was determined as 2460 nM.

In the case of `O/N=C(\Nc1ccc(F)c(Cl)c1)c1c(F)ccc2nc[nH]c12` [Example 3, N-(3-Chloro-4-fluorophenyl)-6-fluoro-N′-hydroxy-1H-benzo[d]imidazole-7-carboximidamide], the EC50 turned out to be 4800 nM.

`O/N=C(\Nc1ccc(F)c(Cl)c1)c1cc(F)cc2nc[nH]c12` [Example 4, N-(3-Chloro-4-fluorophenyl)-5-fluoro-N′-hydroxy-1H-benzo[d]imidazole-7-carboximidamide] yielded an EC50 of 527 nM.

`O/N=C(\Nc1ccc(F)c(Cl)c1)c1ccc(F)c2nc[nH]c12` [Example 5, N-(3-Chloro-4-fluorophenyl)-4-fluoro-N′-hydroxy-1H-benzo[d]imidazole-7-carboximidamide] showed an EC50 of 542 nM.

On to `O/N=C(\Nc1ccc(F)c(Cl)c1)c1ccc(Cl)c2nc[nH]c12` [Example 6, 4-Chloro-N-(3-chloro-4-fluorophenyl)-N′-hydroxy-1H-benzo[d]imidazole-7-carboximidamide], for which it took 793 nM to reach a half-maximal effect (EC50).

On to `O/N=C(\Nc1ccc(F)c(Cl)c1)c1ccc(C(F)(F)F)c2nc[nH]c12` [Example 7, N-(3-Chloro-4-fluorophenyl)-N′-hydroxy-4-(trifluoromethyl)-1H-benzo[d]imidazole-7-carboximidamide], for which the response was half-maximal at 926 nM (EC50).

For the compound `O/N=C(\Nc1ccc(F)c(Cl)c1)c1cccc2nc[nH]c12` [Example 8, N-(3-Chloro-4-fluorophenyl)-N′-hydroxy-1H-benzo[d]imidazole-7-carboximidamide], the EC50 was found to be 1790 nM.

Compound `Cc1c(F)cc(/C(=N/O)Nc2ccc(F)c(Cl)c2)c2[nH]cnc12` [Example 9, N-(3-Chloro-4-fluorophenyl)-6-fluoro-N′-hydroxy-7-methyl-3H-benzimidazole-4-carboximidamide] came in with an EC50 of 634 nM.

As to `O/N=C(\Nc1ccc(F)c(Cl)c1)c1cc(F)c(F)c2nc[nH]c12` [Example 10, N-(3-chloro-4-fluorophenyl)-4,5-difluoro-N′-hydroxy-1H-benzo[d]imidazole-7-carboximidamide], the midpoint of the response, the EC50, lay at 438 nM.

For `O/N=C(\Nc1ccc(F)c(Cl)c1)c1cc(Cl)cc2[nH]cnc12` [Example 11, 6-Chloro-N-(3-chloro-4-fluorophenyl)-N′-hydroxy-1H-benzo[d]imidazole-4-carboximidamide], the EC50 was 7600 nM.

For `O/N=C(\Nc1ccc(F)c(Cl)c1)c1ccc(Br)c2nc[nH]c12` [Example 12, 4-Bromo-N-(3-chloro-4-fluorophenyl)-N′-hydroxy-1H-benzo[d]imidazole-7-carboximidamide], the EC50 was 660 nM.

As to `Nc1nc2c(F)c(F)cc(/C(=N/O)Nc3ccc(F)c(Cl)c3)c2[nH]1` [Example 13, 2-Amino-N-(3-chloro-4-fluorophenyl)-4,5-difluoro-N′-hydroxy-1H-benzo[d]imidazole-7-carboximidamide], the EC50 was determined as 2740 nM.

As for `Nc1nc2c(F)c(F)cc(/C(=N/O)Nc3ccc(F)c(Br)c3)c2[nH]1` [Example 14, 2-Amino-N-(3-bromo-4-fluorophenyl)-4,5-difluoro-N′-hydroxy-1H-benzo[d]imidazole-7-carboximidamide], the EC50 is 494 nM.

As for `Nc1nc2c(F)c(F)cc(/C(=N/O)Nc3cccc(Br)c3)c2[nH]1` [Example 15, 2-Amino-N-(3-bromophenyl)-4,5-difluoro-N′-hydroxy-1H-benzo[d]imidazole-7-carboximidamide], it took 570 nM to reach a half-maximal effect (EC50).

With `Nc1nc2c(F)c(F)cc(/C(=N/O)Nc3cccc(Cl)c3)c2[nH]1` [Example 16, 2-Amino-N-(3-chlorophenyl)-4,5-difluoro-N′-hydroxy-1H-benzo[d]imidazole-7-carboximidamide], the midpoint of the response, the EC50, lay at 607 nM.

With `Nc1nc2c(F)c(F)cc(/C(=N/O)Nc3ccc(F)c(C(F)(F)F)c3)c2[nH]1` [Example 17, 2-Amino-4,5-difluoro-N-(4-fluoro-3-(trifluoromethyl)phenyl)-N′-hydroxy-1H-benzo[d]imidazole-7-carboximidamide], the EC50 is 1090 nM.

Consider `Nc1nc2c(F)ccc(/C(=N/O)Nc3cccc(Br)c3)c2[nH]1` [Example 18, 2-Amino-N-(3-bromophenyl)-4-fluoro-N′-hydroxy-1H-benzo[d]imidazole-7-carboximidamide], for which the response was half-maximal at 312 nM (EC50).

In the case of `Nc1nc2c(F)ccc(/C(=N/O)Nc3ccc(F)c(Br)c3)c2[nH]1` [Example 19, 2-Amino-N-(3-bromo-4-fluorophenyl)-4-fluoro-N′-hydroxy-1H-benzo[d]imidazole-7-carboximidamide], the EC50 turned out to be 456 nM.

`Nc1nc2c(F)ccc(/C(=N/O)Nc3cccc(Cl)c3)c2[nH]1` [Example 20, 2-Amino-N-(3-chlorophenyl)-4-fluoro-N′-hydroxy-1H-benzo[d]imidazole-7-carboximidamide] yielded an EC50 of 404 nM.

Compound `Nc1nc2c(F)ccc(/C(=N/O)Nc3ccc(F)c(C(F)(F)F)c3)c2[nH]1` [Example 21, 2-Amino-4-fluoro-N-(4-fluoro-3-(trifluoromethyl)phenyl)-N′-hydroxy-1H-benzo[d]imidazole-7-carboximidamide] registered an EC50 of 725 nM.

Regarding `Nc1nc2c(F)ccc(/C(=N/O)Nc3ccc(F)c(Cl)c3)c2[nH]1` [Example 22, 2-Amino-N-(3-chloro-4-fluorophenyl)-4-fluoro-N′-hydroxy-1H-benzo[d]imidazole-7-carboximidamide], the EC50 came out at 382 nM.

For `O/N=C(\Nc1ccc(F)c(Cl)c1)c1cc(F)c(F)c2nc(NCCN3CCOCC3)[nH]c12` [Example 23, N-(3-Chloro-4-fluorophenyl)-4,5-difluoro-N′-hydroxy-2-((2-morpholinoethyl)amino)-1H-benzo[d]imidazole-7-carboximidamide], the EC50 is 346 nM.

In turn, `COCCCNCc1nc2c(F)c(F)cc(/C(=N/O)Nc3cccc(Cl)c3)c2[nH]1` [Example 24, N-(3-Chlorophenyl)-4,5-difluoro-N′-hydroxy-2-(((3-methoxypropyl)amino)methyl)-1H-benzo[d]imidazole-7-carboximidamide] displayed an EC50 of 1920 nM.

Compound `O/N=C(\Nc1cccc(Cl)c1)c1cc(F)c(F)c2nc(CNCC3CC3)[nH]c12` [Example 25, N-(3-Chlorophenyl)-2-(((cyclopropylmethyl)amino)methyl)-4,5-difluoro-N′-hydroxy-1H-benzo[d]imidazole-7-carboximidamide] gave an EC50 of 1460 nM.

As to `CN(C)Cc1nc2c(F)c(F)cc(/C(=N/O)Nc3cccc(Cl)c3)c2[nH]1` [Example 26, N-(3-Chlorophenyl)-2-((dimethylamino)methyl)-4,5-difluoro-N′-hydroxy-1H-benzo[d]imidazole-7-carboximidamide], the EC50 amounted to 1210 nM.

For the compound `CC(C)NCc1nc2c(F)c(F)cc(/C(=N/O)Nc3cccc(Cl)c3)c2[nH]1` [Example 27, N-(3-Chlorophenyl)-4,5-difluoro-N′-hydroxy-2-((isopropylamino)methyl)-1H-benzo[d]imidazole-7-carboximidamide], the response was half-maximal at 839 nM (EC50).
